ChEMBL document CHEMBL5442219

Legend:
Conditions in all cases: Compound concentration 10 µM
[1] = target: D(1B) dopamine receptor (Homo sapiens) (UniProt P21918)
Description: PDSP Primary Binding target: DRD5 - Compounds are tested at 10 uM concentration, plate are incubated at room temperature in the dark for 90 minutes. Reaction are stopped by vacuum filtration onto 0.3% polyethyleneimine soaked filter mats using Filtermate harvester. Scintilation cocktail is then melted onto microwave-dried filters on a hot plate and the radio activity is counted in Microbia counter.

[2] = target: T1, Alpha-2B adrenergic receptor (Homo sapiens) (UniProt P18089)
T1 sequence (whole entry): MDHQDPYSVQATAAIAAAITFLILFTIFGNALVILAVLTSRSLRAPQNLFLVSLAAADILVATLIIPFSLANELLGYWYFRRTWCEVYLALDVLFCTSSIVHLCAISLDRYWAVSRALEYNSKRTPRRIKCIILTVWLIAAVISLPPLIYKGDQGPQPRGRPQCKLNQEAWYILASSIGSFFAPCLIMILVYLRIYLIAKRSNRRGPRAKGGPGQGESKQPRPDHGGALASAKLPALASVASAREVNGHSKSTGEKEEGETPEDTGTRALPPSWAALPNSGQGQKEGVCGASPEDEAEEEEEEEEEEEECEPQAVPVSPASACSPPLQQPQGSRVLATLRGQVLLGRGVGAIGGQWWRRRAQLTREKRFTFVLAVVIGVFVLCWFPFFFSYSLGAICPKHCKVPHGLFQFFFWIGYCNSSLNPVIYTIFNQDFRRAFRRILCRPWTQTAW
Description: PDSP Primary Binding target: ADRA2B - Compounds are tested at 10 uM concentration, plate are incubated at room temperature in the dark for 90 minutes. Reaction are stopped by vacuum filtration onto 0.3% polyethyleneimine soaked filter mats using Filtermate harvester. Scintilation cocktail is then melted onto microwave-dried filters on a hot plate and the radio activity is counted in Microbia counter.

[3] = target: T2, Alpha-1D adrenergic receptor (Homo sapiens) (UniProt P25100)
T2 sequence (whole entry): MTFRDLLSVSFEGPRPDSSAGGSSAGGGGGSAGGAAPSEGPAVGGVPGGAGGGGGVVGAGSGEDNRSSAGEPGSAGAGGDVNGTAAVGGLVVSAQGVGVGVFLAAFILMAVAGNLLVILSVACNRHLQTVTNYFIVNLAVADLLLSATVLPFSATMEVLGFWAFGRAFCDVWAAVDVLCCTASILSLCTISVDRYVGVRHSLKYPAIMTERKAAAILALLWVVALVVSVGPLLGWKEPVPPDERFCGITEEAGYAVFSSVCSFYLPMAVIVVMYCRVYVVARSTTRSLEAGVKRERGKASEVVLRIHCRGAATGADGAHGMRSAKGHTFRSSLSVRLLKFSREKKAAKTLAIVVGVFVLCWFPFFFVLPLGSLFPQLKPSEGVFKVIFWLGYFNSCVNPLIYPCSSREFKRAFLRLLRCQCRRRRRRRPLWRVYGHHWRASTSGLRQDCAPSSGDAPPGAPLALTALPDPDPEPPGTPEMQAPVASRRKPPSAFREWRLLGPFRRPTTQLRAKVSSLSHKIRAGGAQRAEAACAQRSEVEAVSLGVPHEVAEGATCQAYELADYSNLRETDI
Description: PDSP Primary Binding target: ADRA1D - Compounds are tested at 10 uM concentration, plate are incubated at room temperature in the dark for 90 minutes. Reaction are stopped by vacuum filtration onto 0.3% polyethyleneimine soaked filter mats using Filtermate harvester. Scintilation cocktail is then melted onto microwave-dried filters on a hot plate and the radio activity is counted in Microbia counter.

[4] = target: Beta-2 adrenergic receptor (Homo sapiens) (UniProt P07550)
Description: PDSP Primary Binding target: ADRB2 - Compounds are tested at 10 uM concentration, plate are incubated at room temperature in the dark for 90 minutes. Reaction are stopped by vacuum filtration onto 0.3% polyethyleneimine soaked filter mats using Filtermate harvester. Scintilation cocktail is then melted onto microwave-dried filters on a hot plate and the radio activity is counted in Microbia counter.

[5] = target: 5-hydroxytryptamine receptor 1E (Homo sapiens) (UniProt P28566)
Description: PDSP Primary Binding target: HTR1E - Compounds are tested at 10 uM concentration, plate are incubated at room temperature in the dark for 90 minutes. Reaction are stopped by vacuum filtration onto 0.3% polyethyleneimine soaked filter mats using Filtermate harvester. Scintilation cocktail is then melted onto microwave-dried filters on a hot plate and the radio activity is counted in Microbia counter.

[6] = target: T3, Alpha-1A adrenergic receptor (Homo sapiens) (UniProt P35348)
T3 sequence (whole entry): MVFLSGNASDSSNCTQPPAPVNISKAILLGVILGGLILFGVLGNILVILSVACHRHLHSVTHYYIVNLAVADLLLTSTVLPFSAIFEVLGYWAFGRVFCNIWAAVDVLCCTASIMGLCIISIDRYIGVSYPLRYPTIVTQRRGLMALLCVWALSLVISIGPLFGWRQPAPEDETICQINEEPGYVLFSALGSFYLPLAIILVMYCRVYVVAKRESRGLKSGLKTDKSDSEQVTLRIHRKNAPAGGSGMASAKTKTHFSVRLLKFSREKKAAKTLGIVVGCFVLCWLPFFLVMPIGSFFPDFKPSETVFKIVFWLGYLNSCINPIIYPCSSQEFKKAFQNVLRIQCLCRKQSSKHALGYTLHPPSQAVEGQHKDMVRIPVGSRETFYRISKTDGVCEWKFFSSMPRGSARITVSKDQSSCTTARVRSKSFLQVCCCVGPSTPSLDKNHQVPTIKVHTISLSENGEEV
Description: PDSP Primary Binding target: ADRA1A - Compounds are tested at 10 uM concentration, plate are incubated at room temperature in the dark for 90 minutes. Reaction are stopped by vacuum filtration onto 0.3% polyethyleneimine soaked filter mats using Filtermate harvester. Scintilation cocktail is then melted onto microwave-dried filters on a hot plate and the radio activity is counted in Microbia counter.

[7] = target: 5-hydroxytryptamine receptor 2A (Homo sapiens) (UniProt P28223)
Description: PDSP Primary Binding target: HTR2A - Compounds are tested at 10 uM concentration, plate are incubated at room temperature in the dark for 90 minutes. Reaction are stopped by vacuum filtration onto 0.3% polyethyleneimine soaked filter mats using Filtermate harvester. Scintilation cocktail is then melted onto microwave-dried filters on a hot plate and the radio activity is counted in Microbia counter.

[8] = target: Sigma intracellular receptor 2 (Homo sapiens) (UniProt Q5BJF2)
Description: PDSP Primary Binding target: TMEM97 - Compounds are tested at 10 uM concentration, plate are incubated at room temperature in the dark for 90 minutes. Reaction are stopped by vacuum filtration onto 0.3% polyethyleneimine soaked filter mats using Filtermate harvester. Scintilation cocktail is then melted onto microwave-dried filters on a hot plate and the radio activity is counted in Microbia counter.

[9] = target: T4, Muscarinic acetylcholine receptor M1 (Homo sapiens) (UniProt P11229)
T4 sequence (whole entry): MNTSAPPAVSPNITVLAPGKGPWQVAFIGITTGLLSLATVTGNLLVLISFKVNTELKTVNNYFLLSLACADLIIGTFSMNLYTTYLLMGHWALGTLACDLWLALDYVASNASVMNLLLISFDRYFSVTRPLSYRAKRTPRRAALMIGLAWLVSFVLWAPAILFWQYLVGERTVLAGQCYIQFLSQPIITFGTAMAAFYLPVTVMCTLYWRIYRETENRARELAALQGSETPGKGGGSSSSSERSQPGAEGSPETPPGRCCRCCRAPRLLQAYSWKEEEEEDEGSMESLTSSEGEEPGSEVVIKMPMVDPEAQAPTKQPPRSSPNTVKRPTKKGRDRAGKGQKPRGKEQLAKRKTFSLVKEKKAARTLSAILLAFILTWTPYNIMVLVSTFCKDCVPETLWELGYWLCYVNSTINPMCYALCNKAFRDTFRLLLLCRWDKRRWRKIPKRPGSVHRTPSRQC
Description: PDSP Primary Binding target: CHRM1 - Compounds are tested at 10 uM concentration, plate are incubated at room temperature in the dark for 90 minutes. Reaction are stopped by vacuum filtration onto 0.3% polyethyleneimine soaked filter mats using Filtermate harvester. Scintilation cocktail is then melted onto microwave-dried filters on a hot plate and the radio activity is counted in Microbia counter.

[10] = target: Histamine H3 receptor (Homo sapiens) (UniProt Q9Y5N1)
Description: PDSP Primary Binding target: HRH3 - Compounds are tested at 10 uM concentration, plate are incubated at room temperature in the dark for 90 minutes. Reaction are stopped by vacuum filtration onto 0.3% polyethyleneimine soaked filter mats using Filtermate harvester. Scintilation cocktail is then melted onto microwave-dried filters on a hot plate and the radio activity is counted in Microbia counter.

[11] = target: T5, Muscarinic acetylcholine receptor M4 (Homo sapiens) (UniProt P08173)
T5 sequence (whole entry): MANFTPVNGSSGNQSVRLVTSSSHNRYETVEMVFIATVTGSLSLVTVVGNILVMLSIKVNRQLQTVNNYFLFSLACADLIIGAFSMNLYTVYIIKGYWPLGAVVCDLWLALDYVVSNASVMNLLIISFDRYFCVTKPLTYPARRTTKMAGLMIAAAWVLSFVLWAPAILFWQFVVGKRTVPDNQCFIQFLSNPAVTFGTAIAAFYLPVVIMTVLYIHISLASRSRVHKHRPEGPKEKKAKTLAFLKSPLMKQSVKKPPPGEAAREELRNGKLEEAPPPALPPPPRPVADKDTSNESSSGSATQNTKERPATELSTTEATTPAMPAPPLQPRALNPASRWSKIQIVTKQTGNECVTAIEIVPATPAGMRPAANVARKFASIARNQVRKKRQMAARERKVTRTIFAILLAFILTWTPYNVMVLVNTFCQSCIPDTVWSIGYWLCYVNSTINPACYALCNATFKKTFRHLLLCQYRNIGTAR
Description: PDSP Primary Binding target: CHRM4 - Compounds are tested at 10 uM concentration, plate are incubated at room temperature in the dark for 90 minutes. Reaction are stopped by vacuum filtration onto 0.3% polyethyleneimine soaked filter mats using Filtermate harvester. Scintilation cocktail is then melted onto microwave-dried filters on a hot plate and the radio activity is counted in Microbia counter.

[12] = target: Mu-type opioid receptor (Homo sapiens) (UniProt P35372)
Description: PDSP Primary Binding target: OPRM1 - Compounds are tested at 10 uM concentration, plate are incubated at room temperature in the dark for 90 minutes. Reaction are stopped by vacuum filtration onto 0.3% polyethyleneimine soaked filter mats using Filtermate harvester. Scintilation cocktail is then melted onto microwave-dried filters on a hot plate and the radio activity is counted in Microbia counter.

[13] = target: Delta-type opioid receptor (Homo sapiens) (UniProt P41143)
Sequence of Delta-type opioid receptor (Homo sapiens) (P41143 whole entry): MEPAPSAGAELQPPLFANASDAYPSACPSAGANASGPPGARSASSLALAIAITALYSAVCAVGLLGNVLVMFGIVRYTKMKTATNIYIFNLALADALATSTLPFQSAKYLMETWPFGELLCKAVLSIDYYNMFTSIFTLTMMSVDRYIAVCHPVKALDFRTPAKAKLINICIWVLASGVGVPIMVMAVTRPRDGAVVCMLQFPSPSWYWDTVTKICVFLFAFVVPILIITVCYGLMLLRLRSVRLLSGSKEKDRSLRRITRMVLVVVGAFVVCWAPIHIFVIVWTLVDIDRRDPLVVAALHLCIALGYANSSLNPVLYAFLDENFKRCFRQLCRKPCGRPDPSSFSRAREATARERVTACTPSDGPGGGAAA
Description: PDSP Primary Binding target: OPRD1 - Compounds are tested at 10 uM concentration, plate are incubated at room temperature in the dark for 90 minutes. Reaction are stopped by vacuum filtration onto 0.3% polyethyleneimine soaked filter mats using Filtermate harvester. Scintilation cocktail is then melted onto microwave-dried filters on a hot plate and the radio activity is counted in Microbia counter.

Sequence of Histamine H3 receptor (Homo sapiens) (Q9Y5N1 whole entry): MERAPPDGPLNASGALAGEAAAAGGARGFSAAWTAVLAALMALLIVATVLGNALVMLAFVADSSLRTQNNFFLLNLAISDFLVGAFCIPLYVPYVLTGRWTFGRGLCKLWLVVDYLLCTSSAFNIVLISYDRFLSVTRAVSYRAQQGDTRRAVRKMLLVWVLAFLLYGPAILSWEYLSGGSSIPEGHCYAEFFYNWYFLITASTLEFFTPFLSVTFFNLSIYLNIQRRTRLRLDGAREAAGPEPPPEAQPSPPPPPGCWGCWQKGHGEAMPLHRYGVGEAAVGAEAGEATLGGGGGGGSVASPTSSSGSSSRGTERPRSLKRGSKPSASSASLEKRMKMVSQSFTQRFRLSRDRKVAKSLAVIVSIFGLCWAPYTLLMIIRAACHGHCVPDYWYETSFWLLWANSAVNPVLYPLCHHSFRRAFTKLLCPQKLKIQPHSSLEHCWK
Sequence of 5-hydroxytryptamine receptor 1E (Homo sapiens) (P28566 whole entry): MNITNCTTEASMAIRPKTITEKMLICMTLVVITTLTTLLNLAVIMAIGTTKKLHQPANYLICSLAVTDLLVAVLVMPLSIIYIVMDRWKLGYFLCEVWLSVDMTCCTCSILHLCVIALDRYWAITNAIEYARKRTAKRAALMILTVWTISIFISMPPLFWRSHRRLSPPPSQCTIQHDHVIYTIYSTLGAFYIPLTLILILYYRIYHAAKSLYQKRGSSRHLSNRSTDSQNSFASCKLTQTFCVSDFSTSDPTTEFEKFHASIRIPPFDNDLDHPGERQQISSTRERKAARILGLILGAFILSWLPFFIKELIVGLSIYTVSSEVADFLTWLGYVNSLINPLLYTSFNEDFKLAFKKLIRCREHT
Sequence of 5-hydroxytryptamine receptor 2A (Homo sapiens) (P28223 whole entry): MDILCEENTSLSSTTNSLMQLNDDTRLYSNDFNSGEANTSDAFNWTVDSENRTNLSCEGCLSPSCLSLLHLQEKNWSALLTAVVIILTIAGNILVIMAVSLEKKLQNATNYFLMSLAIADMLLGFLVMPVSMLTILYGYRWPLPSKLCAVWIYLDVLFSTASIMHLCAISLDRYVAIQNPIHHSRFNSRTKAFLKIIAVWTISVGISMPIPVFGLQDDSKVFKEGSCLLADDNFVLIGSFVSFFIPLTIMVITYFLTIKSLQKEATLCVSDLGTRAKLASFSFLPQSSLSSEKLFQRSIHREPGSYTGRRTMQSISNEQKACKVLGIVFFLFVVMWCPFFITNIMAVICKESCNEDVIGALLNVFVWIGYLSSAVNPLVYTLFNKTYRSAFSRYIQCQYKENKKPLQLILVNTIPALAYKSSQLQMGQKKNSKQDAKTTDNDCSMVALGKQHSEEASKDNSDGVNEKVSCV
Sequence of D(1B) dopamine receptor (Homo sapiens) (P21918 whole entry): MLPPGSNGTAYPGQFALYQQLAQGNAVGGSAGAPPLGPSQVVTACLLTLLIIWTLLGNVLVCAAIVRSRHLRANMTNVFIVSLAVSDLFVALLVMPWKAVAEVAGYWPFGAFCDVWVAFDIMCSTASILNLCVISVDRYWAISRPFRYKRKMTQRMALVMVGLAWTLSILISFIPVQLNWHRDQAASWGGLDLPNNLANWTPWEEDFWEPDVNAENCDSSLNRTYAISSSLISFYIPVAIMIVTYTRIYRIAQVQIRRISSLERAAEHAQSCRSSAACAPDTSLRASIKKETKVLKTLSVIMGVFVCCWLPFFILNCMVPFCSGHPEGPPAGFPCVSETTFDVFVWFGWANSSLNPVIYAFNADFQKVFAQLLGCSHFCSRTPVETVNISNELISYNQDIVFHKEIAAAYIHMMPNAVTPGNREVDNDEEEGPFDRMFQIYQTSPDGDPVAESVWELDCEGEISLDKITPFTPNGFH
Sequence of Beta-2 adrenergic receptor (Homo sapiens) (P07550 whole entry, looked up): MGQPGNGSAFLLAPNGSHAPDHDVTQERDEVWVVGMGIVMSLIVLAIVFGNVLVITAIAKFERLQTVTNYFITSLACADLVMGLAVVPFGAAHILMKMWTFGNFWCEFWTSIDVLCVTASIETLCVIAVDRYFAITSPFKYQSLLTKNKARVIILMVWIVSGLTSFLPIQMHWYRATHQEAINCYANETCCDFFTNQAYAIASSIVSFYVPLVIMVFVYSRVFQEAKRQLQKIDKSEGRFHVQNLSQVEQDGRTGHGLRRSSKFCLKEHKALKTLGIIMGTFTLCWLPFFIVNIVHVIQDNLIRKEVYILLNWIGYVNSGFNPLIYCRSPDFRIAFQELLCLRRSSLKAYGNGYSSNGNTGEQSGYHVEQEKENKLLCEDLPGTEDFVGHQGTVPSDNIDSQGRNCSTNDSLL
Sequence of Mu-type opioid receptor (Homo sapiens) (P35372 whole entry): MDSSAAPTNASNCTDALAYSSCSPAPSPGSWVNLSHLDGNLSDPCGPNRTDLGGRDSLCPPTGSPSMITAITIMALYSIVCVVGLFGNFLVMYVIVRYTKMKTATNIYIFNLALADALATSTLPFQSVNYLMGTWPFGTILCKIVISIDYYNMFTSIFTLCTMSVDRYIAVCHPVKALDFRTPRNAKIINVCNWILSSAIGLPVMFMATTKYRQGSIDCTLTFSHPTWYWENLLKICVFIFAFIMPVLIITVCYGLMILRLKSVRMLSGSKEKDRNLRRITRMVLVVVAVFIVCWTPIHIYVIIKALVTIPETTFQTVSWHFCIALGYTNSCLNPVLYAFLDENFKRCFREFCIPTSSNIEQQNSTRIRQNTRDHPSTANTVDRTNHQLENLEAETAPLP
Sequence of Sigma intracellular receptor 2 (Homo sapiens) (Q5BJF2 whole entry): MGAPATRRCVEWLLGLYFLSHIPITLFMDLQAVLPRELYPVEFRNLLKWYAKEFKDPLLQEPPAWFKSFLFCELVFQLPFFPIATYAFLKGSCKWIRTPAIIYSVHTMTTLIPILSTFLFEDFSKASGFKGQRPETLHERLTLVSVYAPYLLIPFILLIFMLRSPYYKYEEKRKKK

N#Cc1c[nH]c2c(C(=O)N3CCN(CCc4ccc(F)cc4)CC3)cccc12
inhibition [1]: 8.62% | inhibition [2]: -6.2% | inhibition [3]: -4.02% | inhibition [4]: 60.9% | inhibition [5]: 27.3% | inhibition [6]: -8.21% | inhibition [7]: 100% | inhibition [8]: 68.2% | inhibition [9]: -2.04% | inhibition [10]: -0.43%

CCCCCCCCCCCCC/C=C/[C@@H](O)[C@@H](N)COP(=O)(O)O
inhibition [1]: 22.7% | inhibition [2]: -1.62% | inhibition [3]: 9.46% | inhibition [11]: -2.5% | inhibition [5]: 14.4% | inhibition [7]: -3.21% | inhibition [12]: 30.4% | inhibition [8]: 79.4% | inhibition [13]: 20.4% | inhibition [10]: 6.7%

N#Cc1c(O)nc(SCc2cccc(F)c2F)nc1C1CC1
inhibition [1]: 28.4% | inhibition [2]: -6.93% | inhibition [4]: 5.94% | inhibition [5]: -5.94% | inhibition [7]: -3.85% | inhibition [8]: 8.9% | inhibition [13]: 7.91% | inhibition [9]: -6.12% | inhibition [10]: 18.8%

O=C1N/C(=N/c2ccccc2F)S/C1=C\c1ccc(C(=O)O)cc1
inhibition [1]: 6.76% | inhibition [2]: -7.72% | inhibition [4]: 6.54% | inhibition [5]: 4.25% | inhibition [6]: -2.85% | inhibition [7]: -0.36% | inhibition [12]: 56% | inhibition [8]: 33.9% | inhibition [13]: -1.84% | inhibition [9]: 17.1% | inhibition [10]: -4.18%

Cc1nc(-c2ccc(C(F)(F)F)cc2)sc1COc1ccc([C@H](CC(=O)O)c2ccon2)cc1
inhibition [1]: -0.99% | inhibition [2]: -6.48% | inhibition [3]: -8.39% | inhibition [11]: 4.4% | inhibition [4]: 7.87% | inhibition [5]: 39.7% | inhibition [7]: 48.3% | inhibition [12]: -7.02% | inhibition [8]: 26.5% | inhibition [13]: 23% | inhibition [10]: 9.74%

N#Cc1ccc(NC(=O)Nc2ccccc2Br)c2nn[nH]c12
inhibition [1]: -7.18% | inhibition [2]: -2.75% | inhibition [3]: -7.75% | inhibition [11]: 33.1% | inhibition [4]: -2.94% | inhibition [5]: 4.87% | inhibition [7]: -5.61% | inhibition [12]: 27.1% | inhibition [13]: 16.4% | inhibition [10]: 3.06%

Cc1ccc2c(c1)c1c(n2CCc2ccc(C)nc2)CCN(C)C1
inhibition [1]: 32.6% | inhibition [2]: 91.7% | inhibition [3]: 84.6% | inhibition [11]: 5.78% | inhibition [4]: -9.1% | inhibition [5]: 56.9% | inhibition [6]: 88.6% | inhibition [7]: 84.6% | inhibition [12]: 2.42% | inhibition [8]: 32.2% | inhibition [13]: 1.39% | inhibition [10]: 16.2%

O=C1O[C@]2(CC[C@H](C(=O)Nc3ccn(-c4ccccc4F)n3)CC2)c2cnccc21
inhibition [1]: -8.27% | inhibition [5]: 5.31% | inhibition [7]: 22.2% | inhibition [12]: 4.44% | inhibition [8]: -5.33% | inhibition [13]: -5.86% | inhibition [9]: -6% | inhibition [10]: 2.41%

O=c1ccn([C@@H]2O[C@H](COP(=O)(O)OP(=O)(O)OP(=O)(O)O)[C@@H](O)[C@H]2O)c(=O)[nH]1
inhibition [1]: 20.2% | inhibition [2]: 0.09% | inhibition [3]: 11.6% | inhibition [11]: -4.92% | inhibition [5]: -2.1% | inhibition [6]: 2.2% | inhibition [7]: 46.4% | inhibition [12]: 27.4% | inhibition [8]: 34% | inhibition [13]: -0.41% | inhibition [10]: 5.87%

O=C(O)C1CN(Cc2ccc(-c3nc4cc(Cc5ccccc5F)ccc4s3)c(F)c2)C1
inhibition [1]: -0.27% | inhibition [4]: 66.8% | inhibition [5]: 31.1% | inhibition [6]: -8.12% | inhibition [7]: 9.17% | inhibition [12]: -9.83% | inhibition [8]: 19.1% | inhibition [13]: -3.98% | inhibition [9]: 0.63% | inhibition [10]: 1.61%

CCc1nn2c(C)cc(C)nc2c1Cc1ccc(-c2nnc(C3CCNCC3)o2)cc1
inhibition [1]: 6.13% | inhibition [2]: 27.4% | inhibition [3]: -0.67% | inhibition [11]: -6.61% | inhibition [4]: 12.5% | inhibition [5]: 12.6% | inhibition [6]: -9.75% | inhibition [7]: -2.43% | inhibition [12]: 50.7% | inhibition [8]: 80.3% | inhibition [13]: -1.19% | inhibition [10]: -8.3%

NC[C@H](O)c1ccc(O)c(O)c1
inhibition [1]: 34.8% | inhibition [2]: 90.6% | inhibition [3]: 64.8% | inhibition [4]: 16.9% | inhibition [5]: 1.24% | inhibition [6]: 7.82% | inhibition [7]: 10.9% | inhibition [8]: 24.6% | inhibition [13]: -5.14% | inhibition [9]: -6.89%

CO[C@@H]1COCC[C@@H]1N[C@@H]1CC[C@@](C(=O)N2CCc3ncc(C(F)(F)F)cc3C2)(C(C)C)C1
inhibition [1]: 0.19% | inhibition [3]: -8.81% | inhibition [4]: -6.91% | inhibition [5]: 9.5% | inhibition [6]: -0.61% | inhibition [7]: 4.71% | inhibition [12]: 11.2% | inhibition [8]: 67.9% | inhibition [13]: -2.34% | inhibition [9]: -6.06% | inhibition [10]: 4.46%

FC(F)(F)c1c(N2CCC(c3ccccc3)CC2)ccn2c(CC3CC3)nnc12
inhibition [1]: -0.45% | inhibition [3]: -3.82% | inhibition [4]: -5.09% | inhibition [5]: 21.9% | inhibition [6]: -6.36% | inhibition [7]: 44.4% | inhibition [12]: 19.7% | inhibition [8]: 22.9% | inhibition [9]: -1.64%

COc1cc2nc(N3CCN(C(=O)c4ccco4)CC3)nc(N)c2cc1OC
inhibition [1]: 7.69% | inhibition [3]: 0% | inhibition [11]: 2.17% | inhibition [4]: 1.53% | inhibition [5]: 2.33% | inhibition [6]: 98.7% | inhibition [12]: 50% | inhibition [8]: 27.6% | inhibition [13]: 4.29% | inhibition [10]: 8.21%

CN[C@@H]1CCc2[nH]c3ccc(C(N)=O)cc3c2C1
inhibition [1]: 20.9% | inhibition [2]: 13.7% | inhibition [3]: 19.6% | inhibition [11]: -3.71% | inhibition [4]: 22.7% | inhibition [5]: 79.1% | inhibition [6]: 11.8% | inhibition [7]: 16.6% | inhibition [12]: 54.7% | inhibition [8]: 54.9% | inhibition [13]: 2.74% | inhibition [10]: 11.7%
